Measured values from patent publication US20230338609A1, “MEDICAL DEVICES AND MATERIALS COMPRISING BIODEGRADABLE POLYESTERS” (AMICOAT AS, priority 2020, published 2023).
Values after ≈ are worked out from the molar mass of the structure shown.

Tests used:
[1] = system: Staphylococcus aureus, strain ATCC 25923; conditions: ATCC 25923
S. pyogenes = conditions: Table 5
[2] = system: Candida tropicalis ATCC750 - reference strain; format: cell-based
Description: (§1) Yeast and filamentous fungal MIC were performed in MOPS buffered RPMI 1640 medium (MOPS buffer obtained from Sigma Aldrich Ltd., RPMI 1640 obtained from Invitrogen Ltd, Paisley, Scotland). The yeast inocula were in the range 7.5×10^2-4×10^3 CFU/mL and the filamentous fungi approximately 8×10^3-1×10^5 CFU/mL

[3] = system: Trichophyton mentagrophytes - G.R. Micro collection; format: cell-based
Description: as §1

[4] = system: Cryptococcus neoformans - G.R. Micro collection; format: cell-based
Description: as §1

[5] = system: Candida (Issatchenkia) krusei ATCC6258 - reference strain; format: cell-based
Description: as §1

[6] = system: Staphylococcus aureus FDA486; test: Murine skin infection model, topical treatment; format: in vivo; conditions: mice; cream or gel containing 2% (w/w); three treatments at three hourly intervals; biopsy three hours after last
Description: (§2) The skin of mice was infected with Staphylococcus aureus or Streptococcus pyogenes and subsequently given a total of three treatments at three hourly intervals. Three hours after the last treatment, skin biopsies were collected and the number of colony forming units (CFUs) present in the skin sample was determined. Results are shown in FIGS. 1 and 2, expressed as the number of colony forming units per mouse.
as §2, with “3, 4” for “1”, “5” for “2,”

[7] = system: Streptococcus pyogenes CS301; test: Murine skin infection model, topical treatment; format: in vivo; conditions: mice
Description: as §2
as §2, with “3, 4” for “1”, “5” for “2,”

P. aeruginosa = conditions: Table 5
[8] = system: Pseudomonas aeruginosa - multi-drug resistant clinical isolate; format: cell-based
From the text: (§3) Cation-adjusted Mueller-Hinton broth (Oxoid Ltd., Basingstoke, UK and Trek Diagnostic Systems Ltd., East Grinstead, UK) (supplemented with 5% laked horse blood for Streptococcus spp., Corynebacterium jeikeium and Listeria monocytogenes) was used for aerobic bacteria, with an initial inoculum of approximately 10^5 colony-forming units (CFU)/mL.

[9] = system: Enterococcus gallinarum vancomycin-resistant (VanC) clinical isolate; format: cell-based
From the text: as §3

[10] = system: Staphylococcus epidermidis antibiotic susceptible clinical isolate; format: cell-based
From the text: as §3

[11] = system: EMRSA15 Staphylococcus aureus (MRSA) - SSCmec type 4; format: cell-based; conditions: EMRSA15 - SSCmec type 4
From the text: as §3

[12] = system: Streptococcus agalactiae - antibiotic-susceptible clinical isolate; format: cell-based
From the text: as §3

[13] = system: Streptococcus bovis - macrolide-resistant clinical isolate; format: cell-based
From the text: as §3

[14] = system: Moraxella catarrhalis - reduced fluoroquinolone susceptibility clinical isolate; format: cell-based
From the text: as §3

[15] = system: Staphylococcus aureus ATCC 43300 - methicillin-resistant control strain; format: cell-based
From the text: as §3

[16] = system: EMRSA3 Staphylococcus aureus (MRSA) - SSCmec type 1; format: cell-based; conditions: EMRSA3 - SSCmec type 1
From the text: as §3

[17] = system: Moraxella catarrhalis - β -lactamase positive clinical isolate; format: cell-based
From the text: as §3

[18] = system: Corynebacterium jeikeium - antibiotic-susceptible clinical isolate; format: cell-based
From the text: as §3

[19] = system: Corynebacterium jeikeium - multi-drug resistant clinical isolate; format: cell-based
From the text: as §3

[20] = system: Staphylococcus haemolyticus - antibiotic susceptible clinical isolate; format: cell-based
From the text: as §3

[21] = system: Staphylococcus epidermidis methicillin-resistant clinical isolate; format: cell-based
From the text: as §3

[22] = system: Staphylococcus aureus ATCC 29213 - antibiotic-susceptible control strain; format: cell-based
From the text: as §3

[23] = system: Staphylococcus saprophyticus - antibiotic susceptible clinical isolate; format: cell-based
From the text: as §3

[24] = system: HT2001254 Staphylococcus aureus (MRSA) - PVL positive; format: cell-based
From the text: as §3

[25] = system: Staphylococcus aureus ATCC 25923 - antibiotic-susceptible control strain; format: cell-based
From the text: as §3

[26] = system: Staphylococcus aureus - methicillin-resistant clinical isolate; format: cell-based
From the text: as §3

[27] = system: Methicillin resistant Staphylococcus aureus (MRSA) strain ATCC 33591; conditions: ATCC 33591
E. coli = conditions: Table 5
C. albicans = conditions: Table 5
[28] = system: Methicillin resistant Staphylococcus epidermidis (MRSE) strain ATCC 27626; conditions: ATCC 27626

CC(C)NC(=O)[C@H](CCCNC(=N)N)NC(=O)[C@H](Cc1c(C(C)(C)C)[nH]c2c(C(C)(C)C)cc(C(C)(C)C)cc12)NC(=O)[C@@H](N)CCCNC(=N)N [Compound 7]
S. aureus (MIC) [1]: <2 µg/mL | S. pyogenes (MIC) (S. pyogenes): <2 µg/mL | MIC [2]: 4 µg/mL (≈ 5.51 µM) | MIC [3]: 8 µg/mL (≈ 11 µM) | MIC [4]: 8 µg/mL (≈ 11 µM) | MIC [5]: 8 µg/mL (≈ 11 µM) | number of CFUs in skin biopsy vs placebo [6]: the number of CFUs was reduced | number of CFUs in skin biopsy vs placebo gel and bactroban ([7]; 1% or 2% gel, three treatments at three hourly intervals): more effective at reducing the number of CFUs from a Streptococcus pyogenes CS 301 infection than the placebo gel or the bactroban | number of CFUs in skin biopsy, 2% gel compared with 1% gel ([7]; 2% gel vs 1% gel): more effective than the gel containing only 1% of compound 7 | P. aeruginosa (MIC) (P. aeruginosa): 7 µg/mL | MIC [8]: 8 µg/mL (≈ 11 µM) | MIC [9]: 8 µg/mL (≈ 11 µM) | MIC [10]: 4 µg/mL (≈ 5.51 µM) | MIC [11]: 8 µg/mL (≈ 11 µM) | MIC [12]: 8 µg/mL (≈ 11 µM) | MIC [13]: 8 µg/mL (≈ 11 µM) | MIC [14]: 8 µg/mL (≈ 11 µM) | MIC [15]: 8 µg/mL (≈ 11 µM) | MIC [16]: 8 µg/mL (≈ 11 µM) | MIC [17]: 4 µg/mL (≈ 5.51 µM) | MIC [18]: 8 µg/mL (≈ 11 µM) | MIC [19]: 8 µg/mL (≈ 11 µM) | MIC [20]: 4 µg/mL (≈ 5.51 µM) | MIC [21]: 4 µg/mL (≈ 5.51 µM) | MIC [22]: 8 µg/mL (≈ 11 µM) | MIC [23]: 2 µg/mL (≈ 2.75 µM) | MIC [24]: 8 µg/mL (≈ 11 µM) | MIC [25]: 8 µg/mL (≈ 11 µM) | MIC [26]: 8 µg/mL (≈ 11 µM) | MRSA (MIC) [27]: <2 µg/mL | E. coli (MIC) (E. coli): 7 µg/mL | C. albicans (MIC) (C. albicans): 25 µg/mL | MRSE (MIC) [28]: <2 µg/mL
